Laboratory results from patent publication US8835422B2, “Substituted imidazoheterocycle derivatives” (Cara Therapeutics, Inc., priority 2008, dated 2014).

What was measured:
[1] = target: T1, human CB2 receptor (hCB2) (Homo sapiens, UniProt P34972); assay: cAMP assay (LANCE TR-FRET) in CHO-K1 cells stably expressing hCB2; type: cell-based
T1 construct: host or cells: CHO-K1
Method: (§1) The ability of compounds to act as agonists or inverse agonists at human CB2 and CB1 receptors (hCB2, hCB1, respectively) and at the rat CB2 receptor (rCB2) was determined by measuring changes in intracellular cAMP levels. Chinese Hamster Ovary (CHO-K1) cell lines stably expressing hCB2 (Genebank: X74328) or hCB1 (Genebank: X54937) were purchased from Euroscreen (Gosselies, Belgium). The rat CB2 receptor was expressed from genomic DNA (provided by M. Abood, California Pacific Medical Center) in CHO-K1 cells from expression plasmid vector, pcDNA3.1.
(§2) Receptor mediated responses were determined by measuring changes in intracellular cAMP using LANCE cAMP detection kit (cat #AD0264, Perkin Elmer, Wellesley, Mass.) based on time-resolved fluorescence resonance energy transfer (TR-FRET).
(§3) On the day of the experiment, cells were spun at low speed for 5 min at room temperature. […] Cell clumps were removed by filtering through cell strainer 40 μm (BD Falcon, Discovery Labware, Bedford, Mass.) and diluted to 2×10^5 cells/mL. Antibody supplied with the LANCE cAMP immunoassay kit was then added according to the manufacturer's instructions. An aliquot of cells was taken for un-induced controls. […] Cells were then incubated for 30 min at room temperature prior to adding to Proxiplates containing test compounds (final DMSO concentration was less than 0.5%) with a Multidrop bulk dispenser, followed by a sixty minute incubation at room temperature. The response was stopped by addition of the detection mix supplied with the LANCE kit. The reagents were allowed to equilibrate for three hours prior to reading on an Envision multi-mode detector (Perkin-Elmer). TR-FRET was measured using a 330-380 nm excitation filter, a 665 nm emission filter, dichroic mirror 380 nm and Z=1 mm. Cyclic AMP concentrations in each well were back-calculated from a cAMP standard curve run concurrently during each assay. Each plate contained 16 wells of forskolin stimulated cells and 16 wells of forskolin plus CP55,940-treated cells. […] Concentrations of cAMP were expressed as a percent of the difference of these two groups of wells.

[2] = target: human CB1 receptor (hCB1) (Homo sapiens, UniProt P21554); assay: cAMP assay (LANCE TR-FRET) in CHO-K1 cells stably expressing hCB1; type: cell-based
Method: as §1, §2, §3

[3] = system: acetic acid-induced writhing; assay: Inhibition of acetic acid-induced writhing in mice; type: in vivo, Male ICR mice; details: dose of 10 mg/kg, subcutaneous, 30 min before acetic acid; writhes over 15 min
From the text: 12: 525-562; Ramabadran and Bansinath (1986) Pharm. Res. 3: 263-270]. Intraperitoneal administration of dilute acetic acid solution causes a writhing behavior in mice. A writhe is defined as a contraction of the abdominal muscles accompanied by an extension of the forelimbs and elongation of the body. The number of writhes observed in the presence and absence of test compounds is counted to determine the analgesic activity of the compounds.
Male ICR mice, 20-40 grams in weight, were weighed and placed in individual observation chambers (usually a 4000 ml beaker) with a fine layer of rodent bedding at the bottom. To determine the activity and potency of test compounds, different doses of the compound solution or vehicle were injected subcutaneously in the back of the neck 30 minutes prior to administration of acetic acid solution. After administration of the compound or vehicle control, mice were returned to their individual observation chambers awaiting the intraperitoneal administration of acetic acid solution. Thirty minutes later, 10 ml/kg of a 0.6% (v/v) acetic acid solution was then injected into the right lower quadrant of the abdomen. Immediately after the injection, the mouse was returned to its observation chamber and the recording of the number of writhes is begun immediately. The number of writhes was counted over a 15-min period starting from the time of acetic acid injection. Raw data were analyzed using a one-way ANOVA followed by Dunnett's post-tests.
For dose-response analysis, raw data were converted to % maximum possible effect (% MPE) using the formula: % MPE=((Wc−Wv)/(0−Wv))×100, where Wc is the number of writhes in compound-treated mice and Wv is the mean number of writhes in vehicle-treated mice. The dose which elicited 50% attenuation of hypersensitivity (ED50) was determined using linear regression analysis. (Tallarida & Murray, 1987).

human CB1 receptor (hCB1), sequence (P21554 whole entry): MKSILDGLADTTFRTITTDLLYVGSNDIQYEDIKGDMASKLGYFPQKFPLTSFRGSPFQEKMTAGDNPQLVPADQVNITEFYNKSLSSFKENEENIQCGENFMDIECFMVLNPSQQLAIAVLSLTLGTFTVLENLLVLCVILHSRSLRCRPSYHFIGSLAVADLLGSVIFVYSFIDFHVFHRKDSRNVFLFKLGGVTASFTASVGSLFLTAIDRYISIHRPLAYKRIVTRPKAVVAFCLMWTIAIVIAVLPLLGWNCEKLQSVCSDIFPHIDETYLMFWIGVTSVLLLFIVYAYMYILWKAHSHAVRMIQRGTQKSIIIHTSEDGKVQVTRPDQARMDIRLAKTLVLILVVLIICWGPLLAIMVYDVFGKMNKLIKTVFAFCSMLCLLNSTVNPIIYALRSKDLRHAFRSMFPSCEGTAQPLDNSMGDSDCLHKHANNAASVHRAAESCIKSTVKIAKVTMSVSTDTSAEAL
T1 sequence (P34972 whole entry): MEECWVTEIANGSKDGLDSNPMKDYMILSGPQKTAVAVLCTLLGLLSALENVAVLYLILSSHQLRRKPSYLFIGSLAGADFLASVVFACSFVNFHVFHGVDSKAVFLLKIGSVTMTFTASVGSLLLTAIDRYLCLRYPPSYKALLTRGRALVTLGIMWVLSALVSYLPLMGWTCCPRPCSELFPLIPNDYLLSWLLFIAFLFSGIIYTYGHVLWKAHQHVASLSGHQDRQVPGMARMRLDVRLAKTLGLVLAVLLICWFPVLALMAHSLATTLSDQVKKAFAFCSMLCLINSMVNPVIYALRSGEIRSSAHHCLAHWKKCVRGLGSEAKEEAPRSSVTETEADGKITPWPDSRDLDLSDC

Structure (SMILES)	EC50 [1] [nM]	EC50 [2] [nM]	% maximum possible effect (% MPE), writhing [3]
CNC(=O)[C@@H](NC(=O)c1nc(-c2cc(F)ccc2F)n2c1CCCCC2)C(C)(C)C [Compound 1-3, (S)-3-(2,5-difluorophenyl)-N-(3,3-dimethyl-1-(methyl-amino)-1-oxobutan-2-yl)-6,7,8,9-tetrahydro-5H-imidazo[1,5-a]azepine-1-carboxamide]	0.1 to 10	0.1 to 10	greater than fifty
CNC(=O)[C@@H](NC(=O)c1nc(-c2ccc(F)c(F)c2)n2c1CCOCC2)C(C)(C)C [Compound 1-9, (S)-3-(3,4-difluorophenyl)-N-(3,3-dimethyl-1-(methyl-amino)-1-oxobutan-2-yl)-5,6,8,9-tetrahydroimidazo[1,5-d][1,4]oxazepine-1-carboxamide]	0.1 to 10	10 to 100	greater than fifty
